Test results: the RepoRT retention time repository (doi:10.1021/acs.analchem.2c02893)

Experiment: RP, Thermo Scientific Acclaim RSLC 120 C18, 100 × 2.1 mm, 2.2 µm, 30 °C, 0.2 mL/min, estimated dead time 1.1 min; A: 90% water + 10% methanol + 0.01% formic acid + 5 mM ammonium formate, pH 3.61; B: methanol + 0.01% formic acid + 5 mM ammonium formate, pH 3.61; gradient (min/%B) 0/1 1/1 2/39 13/99.9 15/99.9 15.1/1 20.1/1
Conditions: stereoisomer not certain

Row | LC retention time [min] | SMILES
1 | 8.33 | OCCOCCOCCN1CCN(C(c2ccccc2)c2ccc(Cl)cc2)CC1 (centres undefined) [Etodroxizine]
2 | 9.38 | CCN(N=O)C(C)Cc1cccc(C(F)(F)F)c1 (centres undefined) [Fenfluramine-n-Nitroso]
3 | 11.2 | COC1C(OC(N)=O)C(O)C(Oc2ccc3c(O)c(NC(=O)c4ccc(O)c(CC=C(C)C)c4)c(=O)oc3c2C)OC1(C)C (centres undefined) [Novobiocin]
4 | 7.63 | C[N+]1([O-])CCN2c3ccccc3Cc3ccccc3C2C1 (centres undefined) [Mianserine-N-oxide]
5 | 4.96 | CN1CCN(c2cc3c(cc2F)c(=O)c(C(=O)O)cn3-c2ccc(F)cc2)CC1 [Difloxacin]
6 | 5.17 | COc1c(N2CC3CCCNC3C2)c(F)cc2c(=O)c(C(=O)O)cn(C3CC3)c12 (centres undefined) [Moxifloxacin]
7 | 3.27 | Nc1cccc2cc(S(=O)(=O)O)ccc12 [5-Aminonaphthalene-2-sulfonic acid]
8 | 13.6 | Oc1ccc2ccccc2c1N=Nc1ccccc1 [Sudan I]
9 | 2.64 | CCCNC1CCc2nc(N)sc2C1 (centres undefined) [Pramipexole]
10 | 12.1 | CCOC(=O)C(C)Oc1ccc(Oc2cnc3cc(Cl)ccc3n2)cc1 (centres undefined) [Quizalofop-ethyl]
11 | 9.41 | CCCC(C(=O)OCCN(CC)CC)(c1ccccc1)c1ccccc1 [Proadifen]
12 | 4.92 | COc1cc2nc(N3CCN(C(=O)C4CCCO4)CC3)nc(N)c2cc1OC (centres undefined) [Terazosin]
13 | 5.83 | Cc1ccc2n[nH]nc2c1 [Benzotriazole- 5-Me]
14 | 2.98 | Nc1nc2c(ncn2CCC(CO)CO)c(=O)[nH]1 [Penciclovir]
15 | 7.06 | O=C1OC(c2ccc(O)cc2)(c2ccc(O)cc2)c2ccccc21 [Phenolphthalein]
16 | 9.61 | COC(=O)C1=C(C)NC(C)=C(C(=O)OC(C)C)C1c1cccc2nonc12 (centres undefined) [Isradipine]
17 | 10.9 | CC(=O)OC1(C(C)=O)CCC2C3C=C(C)C4=CC(=O)CCC4(C)C3CCC21C (centres undefined) [Megestrol-17-acetate]
18 | 6.04 | CCOC(=O)c1ncn2c1CN(C)C(=O)c1cc(F)ccc1-2 [Flumazenil]
19 | 8.43 | Cc1ccsc1C(=CCCN1CCCC(C(=O)O)C1)c1sccc1C (centres undefined) [Tiagabine]
20 | 2.89 | CC(C)(C)NCC(O)c1ccc(O)c(NC(N)=O)c1 (centres undefined) [Carbuterol]
21 | 7.39 | CN1CC2c3ccccc3Oc3ccc(Cl)cc3C2C1 (centres undefined) [Asenapine]
22 | 3.94 | CC(=O)Nc1c(C)n(C)n(-c2ccccc2)c1=O [Antipyrine- 4-Acetamido]
23 | 10.9 | COC(=O)NC(C(=O)NC(Cc1ccccc1)C(O)CN(Cc1ccc(-c2ccccn2)cc1)NC(=O)C(NC(=O)OC)C(C)(C)C)C(C)(C)C (centres undefined) [Atazanavir]

Row | LC retention time [min] | SMILES
24 | 4.72 | Nc1ccc(S(=O)(=O)NC(=O)c2ccccc2)cc1 [Sulfabenzamide]
25 | 4.28 | COCCOCCOCCOC [Triglyme]
26 | 11.9 | Cc1c(Cl)cccc1Nc1ccccc1C(=O)O [Tolfenamic acid]
27 | 7.19 | COc1ccc(CCN(C)CCCC(C#N)(c2cc(OC)c(OC)c(OC)c2)C(C)C)cc1OC (centres undefined) [Gallopamil]
28 | 9.31 | CN1CCCC1CCOC(C)(c1ccccc1)c1ccc(Cl)cc1 (centres undefined) [Clemastine]
29 | 6.61 | CC1Cc2ccccc2N1NC(=O)c1ccc(Cl)c(S(N)(=O)=O)c1 (centres undefined) [Indapamide]
30 | 9.65 | CSC(=O)c1cccc2nnsc12 [Acibenzolar-S-Methyl]
31 | 9.12 | Nc1nc2ccc(OC(F)(F)F)cc2s1 [Riluzole]
32 | 6.89 | CN(C)CCC=C1c2ccccc2COc2ccc(CC(=O)O)cc21 [Olopatadine]
33 | 3.81 | O=C(O)C1=CC=C2N=NN=C2C1 [Benzotriazole-5-carboxylic acid]
34 | 6.13 | CC=CC(=O)N(CC)C(CC)C(=O)N(C)C (centres undefined) [Crotethamide]
35 | 3.9 | COCCOCCOC [Diglyme]
36 | 4.66 | Cc1cccc(C)c1NC(=O)C1CCCCN1C (centres undefined) [Mepivacaine]
37 | 11.9 | C#CC1(OC(C)=O)CCC2C3CCC4=CC(=NO)CCC4C3CCC21CC (centres undefined) [Norgestimate]
38 | 5.39 | C[N+](C)([O-])CCC(c1ccccc1)c1ccccn1 (centres undefined) [Pheniramine N-Oxide]
39 | 5.33 | Cc1nc2n(c(=O)c1CCN1CCC(c3noc4cc(F)ccc34)CC1)CCCC2O (centres undefined) [Risperidone-9-OH (Paliperidone)]
40 | 10.6 | CC(O)C1C(=O)N2C(C(=O)O)=C(SC3CNC(C(=O)N(C)C)C3)C(C)C12 (centres undefined) [Meropenem]
41 | 6.48 | O=c1n(CCCN2CCN(c3cccc(Cl)c3)CC2)nc2ccccn12 [Trazodone]
42 | 10.9 | CC(C)n1c(C=CC(O)CC(O)CC(=O)O)c(-c2ccc(F)cc2)c2ccccc21 (centres undefined) [Fluvastatin]
43 | 6.74 | CN1CCCCC1CCN1c2ccccc2Sc2ccc(S(C)=O)cc21 (centres undefined) [Mesoridazine]
44 | 8.2 | CC(C)N1CCN(c2ccc(OCC3COC(Cn4cncn4)(c4ccc(Cl)cc4Cl)O3)cc2)CC1 (centres undefined) [Terconazole]
45 | 4.78 | CCCC(=O)Nc1ccc(OCC(O)CNC(C)C)c(C(C)=O)c1 (centres undefined) [Acebutolol]
46 | 10.1 | c1ccc(Nc2ccccc2)cc1 [Diphenylamine]

Row | SMILES | LC retention time [min]
47 | CC(C)(c1ccc(OCC(O)CCl)cc1)c1ccc(OCC(O)CCl)cc1 (centres undefined) [Bisphenol<U+00A0>A bis(3-chloro-2-hydroxypropyl) ether] | 11.4
48 | CC(C)NC(=O)N1CC(=O)N(c2cc(Cl)cc(Cl)c2)C1=O [Iprodione] | 10.5
49 | CNC(=O)ON=C(C)SC [Methomyl] | 4.16
50 | CN(C)NC(=O)CCC(=O)O [Daminozide] | 2.18
51 | CNC(=O)Oc1ccccc1C(C)C [Isoprocarb] | 8.12
52 | CCC=CCC1=C(C)C(OC(=O)C2C(C=C(C)C(=O)OC)C2(C)C)CC1=O (centres undefined) [Pyrethrins: Jasmolin II] | 12.2
53 | Fc1ccc(Oc2ccnc3cc(Cl)cc(Cl)c23)cc1 [Quinoxyphen] | 12.8
54 | COC(=O)C1C(O)CC2CCC1N2C (centres undefined) [EME (Ecgonine methyl ester)] | 1.38
55 | CNC(C)Cc1ccc(O)cc1 (centres undefined) [Pholedrine (Amphetamine-P-Hydroxy-methyl)] | 2.91
56 | CC(C)OC(=O)C(O)(c1ccc(Br)cc1)c1ccc(Br)cc1 [Bromopropylate] | 12.5
57 | CCCCCn1nc(C(=O)c2cccc3ccccc23)c2ccccc21 [THJ-018] | 13.1
58 | CCCCc1c(C)nc(NCC)nc1OS(=O)(=O)N(C)C [Bupirimate] | 10.5
59 | N#CC(CCN1CCC(C(N)=O)(N2CCCCC2)CC1)(c1ccccc1)c1ccccc1 [Piritramide] | 8.19
60 | O=C(Oc1cccc2ccccc12)c1cn(Cc2ccc(F)cc2)c2ccccc12 [FDU-PB-22] | 12.6
61 | CC1(C)C(C(=O)c2cn(CCCC(F)(F)F)c3ccccc23)C1(C)C [XLR-12] | 12
62 | CCOP(=S)(OCC)SCSc1ccc(Cl)cc1 [Carbophenothion] | 12.9
63 | CCCCn1cc(C(=O)c2cccc3ccccc23)c2ccc(O)cc21 [JWH-073-M-6-OH-Ind] | 10.6
64 | CN1CCC23c4c5ccc(O)c4OC2CCCC3C1C5 (centres undefined) [Desomorphine] | 3.84
65 | Cc1ccc(N=CN(C)C=Nc2ccc(C)cc2C)c(C)c1 [Amitraz] | 13.3

Row | SMILES | LC retention time [min]
66 | CC12C=CC(=O)C=C1CCC1C2CCC2(C)C(O)CCC12 (centres undefined) [Boldenone] | 9.03
67 | CC(C)C(NC(=O)c1nn(Cc2ccc(F)cc2)c2ccccc12)C(N)=O (centres undefined) [AB-FUBINACA] | 9.59
68 | O=c1oc2ccccc2c(O)c1C1CC(c2ccc(-c3ccc(Br)cc3)cc2)Cc2ccccc21 (centres undefined) [Brodifacoum] | 13
69 | OC(c1ccc(F)cc1)(c1cncnc1)c1ccccc1Cl (centres undefined) [Nuarimol] | 9.17
70 | CCNc1nc(Cl)nc(NC(C)(C)C#N)n1 [Cyanazine] | 6.55
71 | COc1ccc2[nH]cc(CCN(C(C)C)C(C)C)c2c1 [MeO-DIPT (5-)] | 4.81
72 | CON=C(C(=O)OC)c1ccccc1CON=C(C)c1cccc(C(F)(F)F)c1 [Trifloxystrobin] | 11.6
73 | CC1C(c2ccc(Cl)cc2)SC(=O)N1C(=O)NC1CCCCC1 (centres undefined) [Hexythiazox] | 12.6
74 | O=C(NC12CC3CC(CC(C3)C1)C2)c1nn(CCCCCF)c2ccccc12 [AKB48-5F (5F-APINACA)] | 12.9
75 | CN(C)CCc1c[nH]c2ccc(O)cc12 [Bufotenin] | 2.82
76 | CCC1(C2OC(C3OC(O)(CO)C(C)CC3C)CC2C)CCC(C2(C)CCC3(CC(O)C(C)C(C(C)C(OC)C(C)C(=O)O)O3)O2)O1 (centres undefined) [Monensin] | 13.8
77 | CCCOP(=S)(OCCC)OP(=S)(OCCC)OCCC [Aspon] | 12.9
78 | CSC(C)=NOC(=O)N(C)SN(C)C(=O)ON=C(C)SC [Thiodicarb] | 7.64
79 | N#Cc1c[nH]cc1-c1cccc(Cl)c1Cl [Fenpiclonil] | 8.91
80 | CCCCCn1cc(C(=O)c2cccc3ccccc23)cc1-c1ccccc1F [JWH-307] | 12.8
81 | CCOP(=S)(OCC)ON=C(C#N)c1ccccc1 [Phoxim] | 11.2
82 | Cc1nnc2n1-c1ccc(Cl)cc1C(c1ccccc1)=NC2 [Alprazolam] | 8.36
83 | CN(C)P(=O)(OP(=O)(N(C)C)N(C)C)N(C)C [Schradan] | 5.36
84 | OC(c1ccccc1)(c1ccccc1)C1CCCCN1 (centres undefined) [Pipradrol] | 5.78
